Results: the NIST ThermoML archive (doi:10.1016/j.jct.2008.01.017)
Numbers after ± are expanded uncertainties.

Assays:
[1] = refractive index (Na D-line) (dimensionless); details: 293.15 K; 101.33 kPa; Liquid; Standard Abbe refractometry
[2] = 293.15 K; 101.33 kPa; Liquid
[3] = excess molar enthalpy (molar enthalpy of mixing); xn = mol fraction of the nth substance listed; details: 101 kPa, Liquid, Flow calorimetry

CCCCCCCCO [octan-1-ol]
Details	mass density [kg/m3]	refractive index
[1]	–	1.4293 ± 0.0007
[2]	825.8 ± 0.6	–

CCCCCCCCO [octan-1-ol] + CC#N
[3]
Details	excess molar enthalpy [kcal/mol]
298.15 K, x1 = 0.0476	0.161 ± 0.00406
298.15 K, x1 = 0.0971	0.282 ± 0.00621
298.15 K, x1 = 0.1479	0.375 ± 0.00621
298.15 K, x1 = 0.1998	0.449 ± 0.00717
298.15 K, x1 = 0.2521	0.502 ± 0.00789
298.15 K, x1 = 0.3044	0.541 ± 0.0086
298.15 K, x1 = 0.3562	0.566 ± 0.00908
298.15 K, x1 = 0.407	0.58 ± 0.00908
298.15 K, x1 = 0.471	0.583 ± 0.00932
298.15 K, x1 = 0.5316	0.565 ± 0.00884
298.15 K, x1 = 0.5882	0.539 ± 0.0086
298.15 K, x1 = 0.6879	0.459 ± 0.00741
298.15 K, x1 = 0.7685	0.369 ± 0.00598
298.15 K, x1 = 0.802	0.328 ± 0.00526
298.15 K, x1 = 0.8567	0.245 ± 0.00406
298.15 K, x1 = 0.8975	0.176 ± 0.00311
298.15 K, x1 = 0.9375	0.117 ± 0.00287
313.15 K, x1 = 0.063	0.205 ± 0.00478
313.15 K, x1 = 0.1288	0.361 ± 0.00598
313.15 K, x1 = 0.1966	0.487 ± 0.00789
313.15 K, x1 = 0.2652	0.568 ± 0.00908
313.15 K, x1 = 0.3335	0.614 ± 0.0098
313.15 K, x1 = 0.4003	0.635 ± 0.01
313.15 K, x1 = 0.4647	0.635 ± 0.01
313.15 K, x1 = 0.5259	0.62 ± 0.0098
313.15 K, x1 = 0.583	0.592 ± 0.00932
313.15 K, x1 = 0.6357	0.551 ± 0.00884
313.15 K, x1 = 0.6837	0.501 ± 0.00789
313.15 K, x1 = 0.7268	0.452 ± 0.00717
313.15 K, x1 = 0.7653	0.404 ± 0.00645
313.15 K, x1 = 0.7992	0.359 ± 0.00574
313.15 K, x1 = 0.8288	0.315 ± 0.00526
313.15 K, x1 = 0.8762	0.236 ± 0.00406
313.15 K, x1 = 0.9349	0.124 ± 0.00311
323.15 K, x1 = 0.0633	0.218 ± 0.00526
323.15 K, x1 = 0.1295	0.397 ± 0.00669
323.15 K, x1 = 0.1975	0.541 ± 0.0086
323.15 K, x1 = 0.2663	0.613 ± 0.0098
323.15 K, x1 = 0.3347	0.655 ± 0.0103
323.15 K, x1 = 0.4017	0.672 ± 0.0105
323.15 K, x1 = 0.4661	0.669 ± 0.0105
323.15 K, x1 = 0.5273	0.651 ± 0.0103
323.15 K, x1 = 0.5844	0.619 ± 0.0098
323.15 K, x1 = 0.637	0.575 ± 0.00908
323.15 K, x1 = 0.6849	0.529 ± 0.00837
323.15 K, x1 = 0.7279	0.478 ± 0.00765
323.15 K, x1 = 0.7663	0.428 ± 0.00693
323.15 K, x1 = 0.8001	0.383 ± 0.00621
323.15 K, x1 = 0.8296	0.335 ± 0.0055
323.15 K, x1 = 0.8768	0.248 ± 0.0043
323.15 K, x1 = 0.9352	0.131 ± 0.00335
